# Reference: patent publication US8748415B2 (priority 2011, dated 2014)
# System: recombinant NL4-3 virus (Renilla luciferase in nef, Gag P373S)
# Test: HIV cell culture assay (luciferase activity in MT-2 cells infected with NLRluc recombinant virus)
# Type: cell-based
# Details: NL43, MT-2 cells infected 4-5 days with NLRluc recombinant virus
# Protocol: HIV cell culture assay—MT-2 cells and 293T cells were obtained from the NIH AIDS Research and Reference Reagent Program. MT-2 cells were propagated in RPMI 1640 media supplemented with 10% heat inactivated fetal bovine serum, […]. The 293T cells were propagated in DMEM media supplemented with 10% heat inactivated fetal bovine serum (FBS), 100 units/ml penicillin G and 100 μg/ml streptomycin. The proviral DNA clone of NL4-3 was obtained from the NIH AIDS Research and Reference Reagent Program. A recombinant NL4-3 virus, in which a section of the nef gene from NL4-3 was replaced with the Renilla luciferase gene, was used as a reference virus. In addition, residue Gag P373 was converted to P373S. Briefly, the recombinant virus was prepared by transfection of the altered proviral clone of NL4-3. Transfections were performed in 293T cells using LipofectAMINE PLUS from Invitrogen (Carlsbad, Calif.), according to manufacturer's instruction. The virus was titered in MT-2 cells using luciferase enzyme activity as a marker. Luciferase was quantitated using the Dual Luciferase kit from Promega (Madison, Wis.), with modifications to the manufacturer's protocol. The diluted Passive Lysis solution was pre-mixed with the re-suspended Luciferase Assay Reagent and the re-suspended Stop & Glo Substrate (2:1:1 ratio). Fifty (50) μL of the mixture was added to each aspirated well on assay plates and luciferase activity was measured immediately on a Wallac TriLux (Perkin-Elmer). Antiviral activities of inhibitors toward the recombinant virus were quantified by measuring luciferase activity in cells infected for 4-5 days with NLRluc recombinants in the presence serial dilutions of the inhibitor. Table 1 is the key for the data in Table 2.
Structure (SMILES),EC50 (numeric value) [nM],EC50 (class symbol) [nM]
"C=C(C)[C@@H]1CC[C@]2(CNCC3CCCN3CC)CC[C@]3(C)[C@H](CC[C@@H]4[C@@]5(C)CC=C(c6ccc(C(=O)O)cc6)C(C)(C)[C@@H]5CC[C@]43C)[C@@H]12 (single isomer, unassigned) [Example 3]",30,
"C=C(C)[C@@H]1CC[C@]2(CNCC3CCCN3CC)CC[C@]3(C)[C@H](CC[C@@H]4[C@@]5(C)CC=C(c6ccc(C(=O)O)cc6)C(C)(C)[C@@H]5CC[C@]43C)[C@@H]12 (single isomer, unassigned) [Example 4]",,< 100
"C=C(C)[C@@H]1CC[C@]2(CNCCN(C)C)CC[C@]3(C)[C@H](CC[C@@H]4[C@@]5(C)CC=C(c6ccc(C(=O)O)cc6)C(C)(C)[C@@H]5CC[C@]43C)[C@@H]12 [Example 1, 4-((1R,3aS,5aR,5bR,7aR,11aS,11bR,13aR,13bR)-3a-((2-(dimethylamino)ethylamino)methyl)-5a,5b,8,8,11a-pentamethyl-1-(prop-1-en-2-yl)-2,3,3a,4,5,5a,5b,6,7,7a,8,11,11a,11b,12,13,13a,13b-octadecahydro-1H-cyclopenta[a]chrysen-9-yl)benzoic acid]",,< 100
"C=C(C)[C@@H]1CC[C@]2(CNCCCN3CCOCC3)CC[C@]3(C)[C@H](CC[C@@H]4[C@@]5(C)CC=C(c6ccc(C(=O)O)cc6)C(C)(C)[C@@H]5CC[C@]43C)[C@@H]12 [Example 2, 4-((1R,3aS,5aR,5bR,7aR,11aS,11bR,13aR,13bR)-5a,5b,8,8,11a-pentamethyl-3a-((3-morpholinopropylamino)methyl)-1-(prop-1-en-2-yl)-2,3,3a,4,5,5a,5b,6,7,7a,8,11,11a,11b,12,13,13a,13b-octadecahydro-1H-cyclopenta[a]chrysen-9-yl)benzoic acid]",,< 100
"C=C(C)[C@@H]1CC[C@]2(CNCCc3ccccn3)CC[C@]3(C)[C@H](CC[C@@H]4[C@@]5(C)CC=C(c6ccc(C(=O)O)cc6)C(C)(C)[C@@H]5CC[C@]43C)[C@@H]12 [Example 5, 4-((1R,3aS,5aR,5bR,7aR,11aS,11bR,13aR,13bR)-5a,5b,8,8,11a-pentamethyl-1-(prop-1-en-2-yl)-3a-((2-(pyridin-2-yl)ethylamino)methyl)-2,3,3a,4,5,5a,5b,6,7,7a,8,11,11a,11b,12,13,13a,13b-octadecahydro-1H-cyclopenta[a]chrysen-9-yl)benzoic acid]",20,
"C=C(C)[C@@H]1CC[C@]2(CNCCCN(C)C)CC[C@]3(C)[C@H](CC[C@@H]4[C@@]5(C)CC=C(c6ccc(C(=O)O)cc6)C(C)(C)[C@@H]5CC[C@]43C)[C@@H]12 [Example 6, 4-((1R,3aS,5aR,5bR,7aR,11aS,11bR,13aR,13bR)-3a-((3-(dimethylamino)propylamino)methyl)-5a,5b,8,8,11a-pentamethyl-1-(prop-1-en-2-yl)-2,3,3a,4,5,5a,5b,6,7,7a,8,11,11a,11b,12,13,13a,13b-octadecahydro-1H-cyclopenta[a]chrysen-9-yl)benzoic acid]",30,
"C=C(C)[C@@H]1CC[C@]2(CNCCNC(C)=O)CC[C@]3(C)[C@H](CC[C@@H]4[C@@]5(C)CC=C(c6ccc(C(=O)O)cc6)C(C)(C)[C@@H]5CC[C@]43C)[C@@H]12 [Example 7, 4-((1R,3aS,5aR,5bR,7aR,11aS,11bR,13aR,13bR)-3a-((2-acetamidoethylamino)methyl)-5a,5b,8,8,11a-pentamethyl-1-(prop-1-en-2-yl)-2,3,3a,4,5,5a,5b,6,7,7a,8,11,11a,11b,12,13,13a,13b-octadecahydro-1H-cyclopenta[a]chrysen-9-yl)benzoic acid]",,< 100
"C=C(C)[C@@H]1CC[C@]2(CNCCN3CCNCC3)CC[C@]3(C)[C@H](CC[C@@H]4[C@@]5(C)CC=C(c6ccc(C(=O)O)cc6)C(C)(C)[C@@H]5CC[C@]43C)[C@@H]12 [Example 8, 4-((1R,3aS,5aR,5bR,7aR,11aS,11bR,13aR,13bR)-5a,5b,8,8,11a-pentamethyl-3a-((2-(piperazin-1-yl)ethylamino)methyl)-1-(prop-1-en-2-yl)-2,3,3a,4,5,5a,5b,6,7,7a,8,11,11a,11b,12,13,13a,13b-octadecahydro-1H-cyclopenta[a]chrysen-9-yl)benzoic acid]",,< 100
"C=C(C)[C@@H]1CC[C@]2(CNCCN3CCCCC3)CC[C@]3(C)[C@H](CC[C@@H]4[C@@]5(C)CC=C(c6ccc(C(=O)O)cc6)C(C)(C)[C@@H]5CC[C@]43C)[C@@H]12 [Example 9, 4-((1R,3aS,5aR,5bR,7aR,11aS,11bR,13aR,13bR)-5a,5b,8,8,11a-pentamethyl-3a-((2-(piperidin-1-yl)ethylamino)methyl)-1-(prop-1-en-2-yl)-2,3,3a,4,5,5a,5b,6,7,7a,8,11,11a,11b,12,13,13a,13b-octadecahydro-1H-cyclopenta[a]chrysen-9-yl)benzoic acid]",,< 100
"C=C(C)[C@@H]1CC[C@]2(CNCC(c3cccnc3)N(C)C)CC[C@]3(C)[C@H](CC[C@@H]4[C@@]5(C)CC=C(c6ccc(C(=O)O)cc6)C(C)(C)[C@@H]5CC[C@]43C)[C@@H]12 (stereo partly drawn) [Example 10, 4-((1R,3aS,5aR,5bR,7aR,11aS,11bR,13aR,13bR)-3a-((2-(dimethylamino)-2-(pyridin-3-yl)ethylamino)methyl)-5a,5b,8,8,11a-pentamethyl-1-(prop-1-en-2-yl)-2,3,3a,4,5,5a,5b,6,7,7a,8,11,11a,11b,12,13,13a,13b-octadecahydro-1H-cyclopenta[a]chrysen-9-yl)benzoic acid]",4,
"C=C(C)[C@@H]1CC[C@]2(CNCCN3CCN(C)CC3)CC[C@]3(C)[C@H](CC[C@@H]4[C@@]5(C)CC=C(c6ccc(C(=O)O)cc6)C(C)(C)[C@@H]5CC[C@]43C)[C@@H]12 [Example 11, 4-((1R,3aS,5aR,5bR,7aR,11aS,1bR,13aR,13bR)-5a,5b,8,8,11a-pentamethyl-3a-((2-(4-methylpiperazin-1-yl)ethylamino)methyl)-1-(prop-1-en-2-yl)-2,3,3a,4,5,5a,5b,6,7,7a,8,11,11a,11b,12,13,13a,13b-octadecahydro-1H-cyclopenta[a]chrysen-9-yl)benzoic acid]",,< 100
"C=C(C)[C@@H]1CC[C@]2(CN(CCN(C)C)C(=O)CC(=O)O)CC[C@]3(C)[C@H](CC[C@@H]4[C@@]5(C)CC=C(c6ccc(C(=O)O)cc6)C(C)(C)[C@@H]5CC[C@]43C)[C@@H]12 [Example 12, 4-((1R,3aS,5aR,5bR,7aR,11aS,11bR,13aR,13bR)-3a-((2-carboxy-N-(2-(dimethylamino)ethyl)acetamido)methyl)-5a,5b,8,8,11a-pentamethyl-1-(prop-1-en-2-yl)-2,3,3a,4,5,5a,5b,6,7,7a,8,11,11a,11b,12,13,13a,13b-octadecahydro-1H-cyclopenta[a]chrysen-9-yl)benzoic acid]",,< 100
"C=C(C)[C@@H]1CC[C@]2(CN(CCN(C)C)C(=O)CCC(=O)O)CC[C@]3(C)[C@H](CC[C@@H]4[C@@]5(C)CC=C(c6ccc(C(=O)O)cc6)C(C)(C)[C@@H]5CC[C@]43C)[C@@H]12 [Example 13, 4-((1R,3aS,5aR,5bR,7aR,11aS,11bR,13aR,13bR)-3a-((3-carboxy-N-(2-(dimethylamino)ethyl)propanamido)methyl)-5a,5b,8,8,11a-pentamethyl-1-(prop-1-en-2-yl)-2,3,3a,4,5,5a,5b,6,7,7a,8,11,11a,11b,12,13,13a,13b-octadecahydro-1H-cyclopenta[a]chrysen-9-yl)benzoic acid]",,< 100
"C=C(C)[C@@H]1CC[C@]2(CNCCCN3CCS(=O)(=O)CC3)CC[C@]3(C)[C@H](CC[C@@H]4[C@@]5(C)CC=C(c6ccc(C(=O)O)cc6)C(C)(C)[C@@H]5CC[C@]43C)[C@@H]12 [Example 14, 4-((1R,3aS,5aR,5bR,7aR,11aS,11bR,13aR,13bR)-5a,5b,8,8,11a-pentamethyl-1-(prop-1-en-2-yl)-3a-((3-(1-dioxo-thiomorpholino)propylamino)methyl)-2,3,3a,4,5,5a,5b,6,7,7a,8,11,11a,11b,12,13,13a,13b-octadecahydro-1H-cyclopenta[a]chrysen-9-yl)benzoic acid]",,< 100
"C=C(C)[C@@H]1CC[C@]2(CN(C)CCCN3CCS(=O)(=O)CC3)CC[C@]3(C)[C@H](CC[C@@H]4[C@@]5(C)CC=C(c6ccc(C(=O)O)cc6)C(C)(C)[C@@H]5CC[C@]43C)[C@@H]12 [Example 15, 4-((1R,3aS,5aR,5bR,7aR,11aS,11bR,13aR,13bR)-5a,5b,8,8,11a-pentamethyl-1-(prop-1-en-2-yl)-3a-((3-(1-dioxo-thiomorpholino)propylamino)methyl)-2,3,3a,4,5,5a,5b,6,7,7a,8,11,11a,11b,12,13,13a,13b-octadecahydro-1H-cyclopenta[a]chrysen-9-yl)benzoic acid]",,< 100
